The Ki is a measure of affinity in units of concentration, obtained from inhibition or displacement. A lower Ki goes with higher affinity.

The source of these data is ChEMBL document CHEMBL1129831, “Novel 2,5-disubstituted-1H-pyrroles with high affinity for the dopamine D3 receptor: N-benzyl modifications” (Bioorg Med Chem Lett, 1997).

Molecules are shown by their SMILES.

For one assay, the target named is D(2) dopamine receptor (Homo sapiens, UniProt P14416). Put plainly: Binding affinity, displacement of [125I]iodosulpiride from human Dopamine receptor D2 expressed in CHO cells. The assay is classed as cell-based. On the technique in general: In a radioligand displacement assay an active substance lowers the binding of a labelled ligand.
Assay [1] has as its target Dopamine receptors; D2 & D3 (Homo sapiens) (UniProt P14416+P35462). Put plainly: Ratio of D3 receptor to the D2 receptor. The assay is classed as protein assay.
The target of the next assay is D(3) dopamine receptor (Homo sapiens, UniProt P35462). Put plainly: Binding affinity, displacement of [125I]iodosulpiride from human Dopamine receptor D3 expressed in CHO cells. It counts as cell-based.
Chain of D(3) dopamine receptor (P35462 whole entry): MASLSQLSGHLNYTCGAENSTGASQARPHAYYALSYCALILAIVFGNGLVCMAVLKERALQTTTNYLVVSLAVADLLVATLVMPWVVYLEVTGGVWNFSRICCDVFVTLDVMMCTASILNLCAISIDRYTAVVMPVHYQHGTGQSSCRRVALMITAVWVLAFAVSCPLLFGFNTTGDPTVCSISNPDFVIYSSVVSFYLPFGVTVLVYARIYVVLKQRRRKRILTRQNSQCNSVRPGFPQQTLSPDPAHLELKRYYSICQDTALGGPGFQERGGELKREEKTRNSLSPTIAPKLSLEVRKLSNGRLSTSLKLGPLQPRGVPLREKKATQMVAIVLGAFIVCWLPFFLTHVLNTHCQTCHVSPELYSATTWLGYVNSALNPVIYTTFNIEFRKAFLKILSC

Chain of D(2) dopamine receptor (P14416 whole entry): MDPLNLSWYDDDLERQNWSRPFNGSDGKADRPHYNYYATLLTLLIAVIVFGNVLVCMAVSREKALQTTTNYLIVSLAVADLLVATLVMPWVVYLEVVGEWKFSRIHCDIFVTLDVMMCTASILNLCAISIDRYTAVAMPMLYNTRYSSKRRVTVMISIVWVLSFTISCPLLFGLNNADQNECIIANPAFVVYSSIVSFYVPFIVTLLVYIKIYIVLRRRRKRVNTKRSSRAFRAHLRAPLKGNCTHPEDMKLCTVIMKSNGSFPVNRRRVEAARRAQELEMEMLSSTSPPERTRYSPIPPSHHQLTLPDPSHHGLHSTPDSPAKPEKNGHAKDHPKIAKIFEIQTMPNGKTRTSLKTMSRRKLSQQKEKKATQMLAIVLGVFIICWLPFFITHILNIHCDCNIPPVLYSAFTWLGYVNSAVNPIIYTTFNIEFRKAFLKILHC

Take `CCN(Cc1ccc(C)cc1)Cc1ccc(-c2cc(S(=O)(=O)CC)ccc2OC)[nH]1`: the Ki on D(2) dopamine receptor is 0.398 nM; on D(3) dopamine receptor, 0.2 nM. Also, the Ratio in assay [1] stood at 2.

Regarding `CCN(Cc1ccc(-c2cc(S(=O)(=O)CC)ccc2OC)[nH]1)Cc1ccccc1C`, the Ki on D(2) dopamine receptor was 6.31 nM; at D(3) dopamine receptor, 3.16 nM. Also, the Ratio in assay [1] amounted to 2.

Consider `CCN(Cc1ccc2c(c1)OCO2)Cc1ccc(-c2cc(S(=O)(=O)CC)ccc2OC)[nH]1`, for which the Ki is 3.16 nM at D(2) dopamine receptor and 0.631 nM on D(3) dopamine receptor. In addition, the Ratio in assay [1] came out at 5.

Turning to `CCS(=O)(=O)c1ccc(OC)c(-c2ccc(C3CCCN3Cc3ccccc3)[nH]2)c1` (stereo not drawn), the values for the inhibitory constant (Ki) on D(2) dopamine receptor and on D(3) dopamine receptor were 39.8 nM and 10 nM, respectively. The Ratio in assay [1] was determined as 4.

Turning to `CCS(=O)(=O)c1ccc(OC)c(-c2ccc(CN3CCc4ccccc4C3)[nH]2)c1`, the Ki at D(2) dopamine receptor is 100 nM; on D(3) dopamine receptor it was 31.6 nM. Further, the Ratio in assay [1] came to 3.

On to `CCS(=O)(=O)c1ccc(OC)c(-c2ccc(CN3CCCCCC3c3ccc(C)cc3)[nH]2)c1` (stereo not drawn), for which the values for the inhibitory constant (Ki) on D(2) dopamine receptor and at D(3) dopamine receptor were 25.1 nM and 0.794 nM, respectively. Further, the Ratio in assay [1] was 30.

For the compound `CCN(Cc1cccc(C)c1)Cc1ccc(-c2cc(S(=O)(=O)CC)ccc2OC)[nH]1`, the Ki on D(2) dopamine receptor was 7.94 nM; at D(3) dopamine receptor, 1.58 nM. Also, in assay [1], the Ratio was 5.

Consider `CCS(=O)(=O)c1ccc(OC)c(-c2ccc(CN3CCCCCC3c3ccccc3)[nH]2)c1` (stereo not drawn), for which the Ratio in assay [1] was determined as 30.

Consider `CCN(Cc1ccc(-c2cc(S(=O)(=O)CC)ccc2OC)[nH]1)C1CCCc2ccccc21` (stereo not drawn), for which the Ki was 12.6 nM at D(2) dopamine receptor and 5.01 nM on D(3) dopamine receptor. The Ratio in assay [1] was found to be 3.

With `CCN(Cc1ccc(OC)cc1)Cc1ccc(-c2cc(S(=O)(=O)CC)ccc2OC)[nH]1`, the inhibitory constant (Ki) was 2 nM at D(2) dopamine receptor and 0.251 nM at D(3) dopamine receptor. In addition, the Ratio in assay [1] turned out to be 8.

`CCN(Cc1cccc(Cl)c1)Cc1ccc(-c2cc(S(=O)(=O)CC)ccc2OC)[nH]1`: the inhibitory constant (Ki) is 10 nM at D(2) dopamine receptor and 2.51 nM on D(3) dopamine receptor. For the same compound, the Ratio in assay [1] was found to be 4.

Consider `CCS(=O)(=O)c1ccc(OC)c(-c2ccc(CN3CCCCCC3c3ccc(OC)cc3)[nH]2)c1` (stereo not drawn), for which the Ki at D(2) dopamine receptor is 25.1 nM; at D(3) dopamine receptor, 1.58 nM. Also, the Ratio in assay [1] came to 15.

With `CCN(Cc1ccccc1)Cc1ccc(-c2cc(S(=O)(=O)CC)ccc2OC)[nH]1`, in assay [1], the Ratio turned out to be 3.

On to `CCN(Cc1cccc(OC)c1)Cc1ccc(-c2cc(S(=O)(=O)CC)ccc2OC)[nH]1`, for which the inhibitory constant (Ki) on D(2) dopamine receptor is 79.4 nM; at D(3) dopamine receptor, 7.94 nM. The Ratio in assay [1] is 10.

Consider `CCN1[C@@H](c2ccc(-c3cc(S(=O)(=O)CC)ccc3OC)[nH]2)CC[C@H]1c1ccccc1`, for which the Ki on D(2) dopamine receptor is 158 nM; at D(3) dopamine receptor it was 100 nM.

On to `CCN(Cc1ccc(Cl)cc1)Cc1ccc(-c2cc(S(=O)(=O)CC)ccc2OC)[nH]1`, for which the Ki at D(2) dopamine receptor is 1 nM; at D(3) dopamine receptor, 0.398 nM. The Ratio in assay [1] was found to be 3.

As to `CCN(Cc1ccc(-c2cc(S(=O)(=O)CC)ccc2OC)[nH]1)Cc1ccccc1Cl`, the Ki at D(2) dopamine receptor was 20 nM; on D(3) dopamine receptor, 6.31 nM. In addition, the Ratio in assay [1] turned out to be 3.

In the case of `CCN1[C@H](c2ccccc2)CC[C@H]1c1ccc(-c2cc(S(=O)(=O)CC)ccc2OC)[nH]1`, the Ki is 39.8 nM on D(2) dopamine receptor and 10 nM on D(3) dopamine receptor. Further, the Ratio in assay [1] was found to be 4.

`CCN(Cc1ccc(-c2cc(S(=O)(=O)CC)ccc2OC)[nH]1)[C@@H](C)c1ccccc1`: the Ki on D(2) dopamine receptor was 25.1 nM; at D(3) dopamine receptor it was 2.51 nM. In assay [1], the Ratio was determined as 10.

For `CCS(=O)(=O)c1ccc(OC)c(-c2ccc(CN3CCCCCC3c3ccccc3C)[nH]2)c1` (stereo not drawn), the results for the inhibition constant (Ki) at D(2) dopamine receptor and at D(3) dopamine receptor were 1260 nM and 100 nM, respectively. Moreover, in assay [1], the Ratio was 10.

Regarding `CCN(Cc1ccc(-c2cc(S(=O)(=O)CC)ccc2OC)[nH]1)C1CCc2ccccc21` (stereo not drawn), the inhibitory constant (Ki) on D(2) dopamine receptor and at D(3) dopamine receptor was 0.794 nM each time.

In the case of `CCN(Cc1ccc(-c2cc(S(=O)(=O)CC)ccc2OC)[nH]1)[C@H](C)c1ccccc1`, the Ki on D(2) dopamine receptor was 7.94 nM; at D(3) dopamine receptor it was 0.794 nM. In addition, the Ratio in assay [1] is 10.

`CCN(Cc1ccc(-c2cc(S(=O)(=O)CC)ccc2OC)[nH]1)Cc1ccccc1OC`: the results for the Ki at D(2) dopamine receptor and on D(3) dopamine receptor were 15.8 nM and 10 nM, respectively.

Turning to `CCS(=O)(=O)c1ccc(OC)c(-c2ccc(CN3CCCCCC3c3cccc(OC)c3)[nH]2)c1` (stereo not drawn), the values for the Ki at D(2) dopamine receptor and at D(3) dopamine receptor were 794 nM and 50.1 nM, respectively. For the same compound, the Ratio in assay [1] was determined as 15.

As to `CCN(Cc1ccc(OC)c(OC)c1)Cc1ccc(-c2cc(S(=O)(=O)CC)ccc2OC)[nH]1`, the Ki on D(2) dopamine receptor is 31.6 nM; on D(3) dopamine receptor, 12.6 nM. Besides, in assay [1], the Ratio was 3.
